Literature values, collected in patent US9095607B2, “Gel for topical application of clove essential oil with broad spectrum anti-inflammatory action and method of preparing same” (priority 2013, dated 2015).

Columns and labels:
[1] = tested on: NF-kB
[2] = tested on: neutrophil migration
[3] = tested on: kinin B1 receptors

| SMILES | LPS-induced NF-kB activation [1] | LPS-induced neutrophil migration [2] | in vivo up-regulation of kinin B1 receptors [3] |
| --- | --- | --- | --- |
| C/C1=C\CC/C(C)=C/CC(C)(C)/C=C/C1 [Alpha-humulene] | inhibit | inhibit | ability to prevent |
| C=C1CC/C=C(\C)CC[C@@H]2[C@@H]1CC2(C)C [Beta-caryophyllene] | inhibit | inhibit |  |
